Reference: ChEMBL document CHEMBL5143718, “Rational Design of a Theranostic Agent Triggered by Endogenous Nitric Oxide in a Cellular Model of Alzheimer's Disease” (J Med Chem, 2022)
Active and inactive are the calls of the source. No cut-off for these calls is given here.

How the values were obtained:
HT-22 [1] = experiment: Antioxidant activity in mouse HT-22 cells cocultured with BV-2 cells assessed as increase in GSH level at 5 uM incubated for 48 hrs by DCFH-DA staining based microplate reader analysis; type: functional
HT-22 [2] = experiment: Antioxidant activity in mouse HT-22 cells cocultured with BV-2 cells assessed as upregulation of NQO1 mRNA expression at 5 uM after 48 hrs by qRT-PCR analysis; type: functional, cell-based
HT-22 [3] = experiment: Cytotoxicity against mouse HT-22 cells assessed as increase in live/dead cells ratio at 5 uM after 48 hrs by Live/dead staining based fluorescence microscopic analysis; type: toxicity, cell-based; conditions: ht-22, 48 h
HT-22 [4] = experiment: Cytotoxicity against mouse HT-22 cells assessed as reduction in cell viability at < 5 uM incubated for 24 hrs by CCK8 assay; type: toxicity, cell-based; conditions: ht-22, 24 h
HT-22 [5] = experiment: Cytotoxicity against mouse HT-22 cells assessed as reduction in cell viability at 5 uM after 36 hrs by CCK8 assay; type: toxicity, cell-based; conditions: ht-22, 36 h
HT-22 [6] = experiment: Cytotoxicity against mouse HT-22 cells assessed as reduction in cell viability at higher concentration incubated for 24 hrs by CCK8 assay; type: toxicity, cell-based; conditions: ht-22, 24 h
HT-22 [7] = experiment: Antioxidant activity in mouse HT-22 cells cocultured with BV-2 cells assessed as reduction in glutamic acid level at 5 uM incubated for 24 hrs; type: functional
[8] = Effective permeability of compound in PBS buffer at pH 7.4 incubated for 18 hrs by PAMPA assay; type: ADME; conditions: read-out: Peff
BV-2 [9] = experiment: Cytotoxicity against mouse BV-2 cells assessed as reduction in cell viability at 1 to 10 uM incubated for 24 hrs by CCK8 assay; type: toxicity, cell-based; conditions: bv-2, 24 h, dose 1-10 µM
[10] = Cytotoxicity against mouse HT-22 cells assessed as cell viability at 5 uM after 48 hrs by CCK8 assay; type: toxicity, cell-based; conditions: read-out: Activity
HT-22 [11] = experiment: Cytotoxicity against mouse HT-22 cells assessed as reduction in cell viability at 5 uM after 24 hrs by CCK8 assay; type: toxicity, cell-based; conditions: ht-22, 24 h
HT-22 [12] = experiment: Antioxidant activity in mouse HT-22 cells cocultured with BV-2 cells assessed as ROS scavenging activity at 5 uM incubated for 48 hrs by DCFH-DA staining based microplate reader analysis; type: functional
HT-22 [13] = experiment: Antioxidant activity in mouse HT-22 cells cocultured with BV-2 cells assessed as upregulation of HO-1 mRNA expression at 5 uM after 48 hrs by qRT-PCR analysis; type: functional, cell-based
[14] = Drug uptake in LPS-stimulated mouse BV-2 cells assessed as increase in fluorescence at 10 uM pretreated with LPS and L-NAA for 16 hrs followed by compound addition and measured after 3 hrs; type: ADME, cell-based; conditions: bv-2, 3 h
[15] = Drug uptake in INFgamma-stimulated mouse BV-2 cells assessed as increase in fluorescence at 10 uM pretreated with INFgamma and carboxyl-PTIO for 3 hrs followed by compound addition and measured after 3 hrs; type: ADME, cell-based
[16] = Drug uptake in L-arginine stimulated mouse BV-2 cells assessed as increase in fluorescence at 10 uM pretreated with L-arginine and L-NAA for 16 hrs followed by compound addition and measured after 3 hrs; type: ADME, cell-based; conditions: bv-2, 3 h
[17] = Drug uptake in INFgamma-stimulated mouse BV-2 cells assessed as increase in fluorescence at 10 uM pretreated with INFgamma and L-NAA for 16 hrs followed by compound addition and measured after 3 hrs; type: ADME, cell-based; conditions: bv-2, 3 h
HT-22 [18] = experiment: Cytotoxicity against mouse HT-22 cells cocultured with BV-2 cells assessed as increase in live/dead cells ratio at 5 uM after 48 hrs by Live/dead staining based fluorescence microscopic analysis; type: toxicity, cell-based; conditions: ht-22, 48 h
[19] = Cytotoxicity against mouse HT-22 cells cocultured with BV-2 cells assessed as cell viability at 5 uM after 48 hrs by CCK8 assay (reference value: 5.19 +/- 1.60%); type: toxicity, cell-based; conditions: read-out: Activity
[20] = Drug uptake in mouse BV-2 cells assessed as increase in fluorescence at 10 uM after 3 hrs; type: ADME, cell-based; conditions: bv-2, 3 h
[21] = Drug uptake in LPS-stimulated mouse BV-2 cells assessed as increase in fluorescence at 10 uM pretreated with LPS and carboxyl-PTIO for 3 hrs followed by compound addition and measured after 3 hrs; type: ADME, cell-based
[22] = Drug uptake in mouse HT-22 cells cocultured with BV-2 cells assessed as increase in fluorescence at 10 uM after 12 hrs; type: ADME, cell-based; conditions: ht-22, 12 h
[23] = Drug uptake in L-arginine stimulated mouse BV-2 cells assessed as increase in fluorescence at 10 uM pretreated with L-arginine and carboxyl-PTIO for 3 hrs followed by compound addition and measured after 3 hrs; type: ADME, cell-based
BV-2 [24] = experiment: Cytotoxicity against mouse BV-2 cells assessed as reduction in cell viability at 10 uM incubated for 24 hrs by CCK8 assay; type: toxicity, cell-based; conditions: bv-2, 24 h

Row | Structure (SMILES) | Activity (HT-22 [1]) | Activity (HT-22 [4]) | Activity (HT-22 [5]) | Activity (HT-22 [6]) | Activity (HT-22 [7]) | viability at 48 h, 5 µM [10] | Activity (HT-22 [11]) | Activity (HT-22 [12]) | Drug uptake [14] | Drug uptake [15] | Drug uptake [16] | Drug uptake [17] | Activity (HT-22 [18]) | viability at 48 h, 5 µM [19] | Drug uptake [20] | Drug uptake [21] | Drug uptake [22] | Drug uptake [23] | further results
1 | CC12CC3CC(C)(C1)CC(NCCOCCOCCOCCOc1ccc(N4c5ccccc5N(c5ccccc5)c5c4c4ccccc4c4ccccc54)cc1)(C3)C2 | 103.7 | Non-Toxic | Non-Toxic | Non-Toxic | 0.32 | 45.9% | Non-Toxic | 732 | – | – | – | – | – | – | – | – | – | – | Activity (HT-22 [2]): Active; Activity (HT-22 [3]): Non-Toxic; Papp at 18 h [8]: 5.73 ×10⁻⁶ cm/s; Activity (BV-2 [9]): Non-Toxic; Activity (HT-22 [13]): Active
2 | CC12CC3CC(C)(C1)CC(NCCOCCOCCOCCO)(C3)C2 | – | – | – | – | Active | 20.1% | – | – | – | – | – | – | – | – | – | – | – | – | –
3 | O=C1C(=O)c2ccccc2-c2ccccc21 [9,10-PHENANTHRENEQUINONE] | – | – | – | – | – | – | – | – | Active | Active | Active | Active | Non-Toxic | 4.46% | Active | Active | Active | Active | –
4 | O=C1C=CC(=O)C=C1 [BENZOQUINONE] | – | – | – | – | – | – | – | – | Active | Active | Active | Active | Non-Toxic | 4.33% | Active | Active | Active | Active | –
5 | CC12CC3CC(C)(C1)CC(N)(C3)C2 [MEMANTINE] | 91.9 | Non-Toxic | Non-Toxic | Non-Toxic | 0.47 | 13.9% | Non-Toxic | 586.7 | – | – | – | – | – | – | – | – | – | – | Activity (BV-2 [24]): > 70%
